“And” between values parts separate entries of the source, which are not always exact repeats. Identical values can stand only once. HELM strings list units from the 5' end as sugar, base in round brackets, then linkage (d deoxyribose, r ribose, m 2'-O-methyl, p phosphodiester). Strings are as the collection lists them, not checked against the first reports. ss, as = sense and antisense strand; [lna] = locked nucleic acid (LNA); [una] = unlocked nucleic acid; [fl2r] = 2'-fluoro

This note sets out measurements from the OligoGym collection.
Further: test system not given here.

The conditions of the series: siRNA.
The substance “RNA1{r(A)p.r(G)p.r(C)p.m(C)p.r(A)p.m(C)p.r(A)p.r(U)p.r(U)p.r(U)p.r(C)p.m(U)p.r(A)p.r(G)p.r(G)p.r(A)p.r(G)p.r(A)p.r(U)p.r(T)p.r(T)}|RNA2{r(A)p.r(U)p.r(C)p.r(U)p.r(C)p.r(C)p.m(U)p.r(A)p.m(G)p.r(A)p.r(A)p.r(A)p.r(U)p.r(G)p.m(U)p.r(G)p.r(G)p.r(C)p.r(U)p.r(T)p.r(T)}$$$RNA1{StrandType:ss}|RNA2{StrandType:as}$” had a target mRNA knockdown of 26%.

As for “RNA1{[fl2r](G)p.r(G)p.[fl2r](C)p.r(U)p.[fl2r](U)p.r(A)p.[fl2r](G)p.r(U)p.[fl2r](C)p.r(A)p.[fl2r](C)p.r(U)p.[fl2r](C)p.r(C)p.[fl2r](U)p.r(C)p.[fl2r](U)p.r(U)p.[fl2r](C)p.r(T)p.r(T)}|RNA2{r(G)p.r(A)p.r(A)p.r(G)p.r(A)p.r(G)p.r(G)p.r(A)p.r(G)p.r(U)p.r(G)p.r(A)p.r(C)p.r(U)p.r(A)p.r(A)p.r(G)p.r(C)p.r(C)p.r(T)p.r(T)}$$$RNA1{StrandType:ss}|RNA2{StrandType:as}$”, the target mRNA knockdown is 23%.

“RNA1{r(A)p.r(A)p.m(U)p.r(A)p.r(A)p.r(G)p.m(C)p.r(A)p.r(G)p.r(C)p.r(U)p.r(C)p.r(G)p.r(C)p.r(G)p.r(C)p.r(U)p.r(C)p.r(C)p.r(T)p.r(T)}|RNA2{r(G)p.r(G)p.r(A)p.r(G)p.r(C)p.r(G)p.r(C)p.r(G)p.r(A)p.r(G)p.r(C)p.m(U)p.r(G)p.r(C)p.m(U)p.r(U)p.r(A)p.r(U)p.r(U)p.r(T)p.r(T)}$$$RNA1{StrandType:ss}|RNA2{StrandType:as}$”: the target mRNA knockdown came out at 68%.

For the substance “RNA1{r(A)p.r(U)p.r(C)p.r(U)p.r(G)p.r(A)p.r(A)p.r(G)p.r(A)p.r(A)p.r(G)p.r(G)p.r(A)p.r(G)p.r(A)p.r(A)p.r(A)p.r(A)p.r(A)p.d(T)p.d(T)}|RNA2{r(U)p.r(U)p.r(U)p.r(U)p.r(U)p.r(C)p.r(U)p.r(C)p.r(C)p.r(U)p.r(U)p.r(C)p.r(U)p.r(U)p.r(C)p.r(A)p.r(G)p.r(A)p.r(U)p.[lna](T)p.[lna](T)}$$$RNA1{StrandType:ss}|RNA2{StrandType:as}$”, the target mRNA knockdown is 93%.

“RNA1{r(A)p.r(G)p.r(A)p.r(A)p.r(A)p.r(A)p.r(G)p.m(C)p.r(A)p.r(G)p.r(C)p.r(G)p.r(A)p.m(U)p.r(A)p.r(C)p.r(G)p.r(C)p.r(U)p.r(T)p.r(T)}|RNA2{r(A)p.r(G)p.r(C)p.r(G)p.r(U)p.r(A)p.r(U)p.r(C)p.r(G)p.r(C)p.m(U)p.r(G)p.r(C)p.r(U)p.r(U)p.r(U)p.r(U)p.r(C)p.r(U)p.r(T)p.r(T)}$$$RNA1{StrandType:ss}|RNA2{StrandType:as}$” showed a target mRNA knockdown of 68%.

On to “RNA1{r(U)p.r(U)p.r(U)p.r(C)p.r(C)p.r(C)p.r(C)p.r(C)p.[fl2r](A)p.[fl2r](G)p.[fl2r](G)p.r(U)p.[fl2r](A)p.[fl2r](A)p.[fl2r](C)p.[fl2r](G)p.r(A)p.r(U)p.r(U)p.r(T)p.r(T)}|RNA2{r(A)p.r(A)p.r(U)p.r(C)p.r(G)p.r(U)p.r(U)p.r(A)p.r(C)p.r(C)p.r(U)p.r(G)p.r(G)p.r(G)p.r(G)p.r(G)p.r(A)p.r(A)p.r(A)p.r(T)p.r(T)}$$$RNA1{StrandType:ss}|RNA2{StrandType:as}$”, for which the target mRNA knockdown was determined as 78%.

Take “RNA1{r(C)p.r(C)p.r(G)p.r(C)p.r(C)p.r(C)p.r(G)p.r(G)p.r(C)p.r(G)p.r(G)p.r(C)p.m(G)p.r(C)p.r(C)p.r(U)p.r(U)p.m(U)p.m(A)p.r(T)p.r(T)}|RNA2{m(U)p.m(A)p.r(A)p.r(A)p.r(G)p.r(G)p.r(C)p.r(G)p.r(C)p.r(C)p.r(G)p.r(C)p.r(C)p.r(G)p.r(G)p.r(G)p.r(C)p.r(G)p.r(G)p.r(T)p.r(T)}$$$RNA1{StrandType:ss}|RNA2{StrandType:as}$”: the target mRNA knockdown is 85%.

“RNA1{r(G)p.r(G)p.r(U)p.r(A)p.r(G)p.r(G)p.r(G)p.r(U)p.r(U)p.r(G)p.r(A)p.r(A)p.r(G)p.r(A)p.r(G)p.r(A)p.r(C)p.r(U)p.r(U)p.r(T)p.r(T)}|RNA2{r(A)p.r(A)p.r(G)p.r(U)p.r(C)p.r(U)p.r(C)p.r(U)p.r(U)p.r(C)p.r(A)p.r(A)p.r(C)p.r(C)p.r(C)p.m(U)p.r(A)p.r(C)p.r(C)p.r(T)p.r(T)}$$$RNA1{StrandType:ss}|RNA2{StrandType:as}$” returned a target mRNA knockdown of 95%.

Take “RNA1{r(A)p.r(A)p.m(C)p.r(U)p.m(C)p.r(U)p.r(A)p.m(C)p.r(U)p.r(G)p.r(U)p.r(G)p.r(G)p.r(A)p.r(G)p.r(U)p.m(C)p.r(G)p.r(G)p.r(T)p.r(T)}|RNA2{m(C)p.m(C)p.r(G)p.r(A)p.m(C)p.r(U)p.m(C)p.m(C)p.r(A)p.m(C)p.r(A)p.r(G)p.r(U)p.r(A)p.r(G)p.r(A)p.r(G)p.r(U)p.r(U)p.r(T)p.r(T)}$$$RNA1{StrandType:ss}|RNA2{StrandType:as}$”: the target mRNA knockdown stood at 57%.

For “RNA1{r(C)p.r(U)p.r(U)p.r(A)p.r(C)p.r(G)p.r(C)p.r(U)p.r(G)p.r(A)p.r(G)p.r(U)p.r(A)p.r(C)p.r(U)p.r(U)p.r(C)p.r(G)p.r(A)p.[lna](T)p.[lna](T)}|RNA2{r(U)p.r(C)p.r(G)p.r(A)p.r(A)p.r(G)p.r(U)p.r(A)p.r(C)p.r(U)p.r(C)p.r(A)p.r(G)p.r(C)p.r(G)p.r(U)p.r(A)p.r(A)p.r(G)p.[lna](T)p.[lna](T)}$$$RNA1{StrandType:ss}|RNA2{StrandType:as}$”, the target mRNA knockdown is 93% and 92%.

Consider “RNA1{m(G)p.r(G)p.m(C)p.r(C)p.m(U)p.r(U)p.m(U)p.r(C)p.m(U)p.r(C)p.m(U)p.r(C)p.m(U)p.r(A)p.m(G)p.r(A)p.m(U)p.r(A)p.m(U)p.r(T)p.r(T)}|RNA2{r(A)p.r(U)p.r(A)p.r(U)p.r(C)p.r(U)p.r(A)p.r(G)p.r(A)p.r(G)p.r(A)p.r(G)p.r(A)p.r(A)p.r(A)p.m(G)p.r(G)p.r(C)p.r(C)p.r(T)p.r(T)}$$$RNA1{StrandType:ss}|RNA2{StrandType:as}$”, for which the target mRNA knockdown was determined as 80%.

“RNA1{r(G)p.r(G)p.r(A)p.r(G)p.r(C)p.m(U)p.r(A)p.r(G)p.r(A)p.r(C)p.r(G)p.r(G)p.r(G)p.m(U)p.r(A)p.r(C)p.r(G)p.r(A)p.r(G)p.r(T)p.r(T)}|RNA2{r(C)p.r(U)p.r(C)p.r(G)p.m(U)p.r(A)p.r(C)p.r(C)p.r(C)p.r(G)p.r(U)p.r(C)p.m(U)p.r(A)p.r(G)p.r(C)p.r(U)p.r(C)p.r(C)p.r(T)p.r(T)}$$$RNA1{StrandType:ss}|RNA2{StrandType:as}$”: the target mRNA knockdown was determined as 82%.

Substance “RNA1{[fl2r](G)p.r(C)p.[fl2r](U)p.r(G)p.[fl2r](A)p.r(A)p.[fl2r](C)p.r(U)p.[fl2r](A)p.r(G)p.[fl2r](U)p.r(C)p.[fl2r](G)p.r(A)p.[fl2r](A)p.r(A)p.[fl2r](G)p.r(A)p.[fl2r](A)p.r(T)p.r(T)}|RNA2{r(U)p.r(U)p.r(C)p.r(U)p.r(U)p.r(U)p.r(C)p.r(G)p.[fl2r](A)p.r(C)p.r(U)p.[fl2r](A)p.r(G)p.r(U)p.r(U)p.r(C)p.[fl2r](A)p.r(G)p.r(C)p.r(T)p.r(T)}$$$RNA1{StrandType:ss}|RNA2{StrandType:as}$” gave a target mRNA knockdown of 49%.

Consider “RNA1{r(C)p.r(C)p.r(U)p.r(C)p.r(G)p.r(G)p.r(A)p.r(G)p.r(A)p.r(G)p.r(U)p.r(U)p.r(C)p.r(U)p.r(A)p.r(C)p.r(U)p.r(C)p.r(U)p.r(T)p.r(T)}|RNA2{r(A)p.r(G)p.r(A)p.r(G)p.m(U)p.r(A)p.r(G)p.r(A)p.r(A)p.r(C)p.r(U)p.r(C)p.r(U)p.r(C)p.r(C)p.r(G)p.r(A)p.r(G)p.r(G)p.r(T)p.r(T)}$$$RNA1{StrandType:ss}|RNA2{StrandType:as}$”, for which the target mRNA knockdown is 85%.

“RNA1{r(G)p.r(G)p.r(G)p.r(A)p.r(G)p.r(G)p.r(A)p.r(U)p.r(G)p.r(A)p.r(C)p.r(A)p.r(A)p.r(A)p.r(G)p.r(A)p.r(A)p.r(G)p.r(C)p.r(T)p.r(T)}|RNA2{r(G)p.[fl2r](C)p.r(U)p.r(U)p.[fl2r](C)p.r(U)p.r(U)p.r(U)p.r(G)p.r(U)p.[fl2r](C)p.r(A)p.r(U)p.[fl2r](C)p.[fl2r](C)p.r(U)p.[fl2r](C)p.[fl2r](C)p.[fl2r](C)p.r(T)p.r(T)}$$$RNA1{StrandType:ss}|RNA2{StrandType:as}$” had a target mRNA knockdown of 37%.

Consider “RNA1{r(C)p.r(U)p.r(U)p.r(A)p.r(C)p.r(G)p.r(C)p.r(U)p.r(G)p.r(A)p.r(G)p.r(U)p.r(A)p.r(C)p.r(U)p.r(U)p.r(C)p.r(G)p.r(A)p.r(T)p.r(T)}|RNA2{r(T)p.r(C)p.r(G)p.r(A)p.r(A)p.r(G)p.r(U)p.r(A)p.r(C)p.r(U)p.r(C)p.r(A)p.r(G)p.r(C)p.r(G)p.r(U)p.[lna](A)p.r(A)p.r(G)p.[lna](T)p.[lna](T)}$$$RNA1{StrandType:ss}|RNA2{StrandType:as}$”, for which the target mRNA knockdown came to 96%.

As for “RNA1{m(U)p.r(A)p.m(A)p.r(A)p.m(C)p.r(U)p.m(U)p.r(U)p.m(G)p.r(G)p.m(G)p.r(G)p.m(A)p.r(A)p.m(G)p.r(G)p.m(G)p.r(A)p.m(G)p.r(T)p.r(T)}|RNA2{r(C)p.r(U)p.r(C)p.r(C)p.r(C)p.r(U)p.r(U)p.r(C)p.r(C)p.r(C)p.r(C)p.r(A)p.r(A)p.r(A)p.r(G)p.r(U)p.r(U)p.r(U)p.r(A)p.r(T)p.r(T)}$$$RNA1{StrandType:ss}|RNA2{StrandType:as}$”, the target mRNA knockdown came out at 34%.

“RNA1{[lna](T)p.r(G)p.r(A)p.r(G)p.r(A)p.r(G)p.r(A)p.r(A)p.r(A)p.r(G)p.r(C)p.r(A)p.r(C)p.r(A)p.r(G)p.r(A)p.r(A)p.r(A)p.r(A)p.[lna](T)p.[lna](T)}|RNA2{r(U)p.r(U)p.r(U)p.r(U)p.r(C)p.r(U)p.r(G)p.r(U)p.r(G)p.r(C)p.r(U)p.r(U)p.r(U)p.r(C)p.r(U)p.r(C)p.r(U)p.r(C)p.r(A)p.d(T)p.d(T)}$$$RNA1{StrandType:ss}|RNA2{StrandType:as}$” registered a target mRNA knockdown of 70%.

For the substance “RNA1{r(G)p.r(U)p.r(A)p.r(U)p.r(G)p.r(A)p.r(C)p.r(C)p.r(G)p.r(A)p.r(C)p.r(U)p.r(A)p.r(C)p.r(G)p.r(C)p.r(G)p.r(U)p.r(A)p.r(T)p.r(T)}|RNA2{r(U)p.r(U)p.r(C)p.r(A)p.[una](G)p.r(U)p.r(G)p.r(U)p.r(G)p.r(A)p.r(U)p.r(G)p.r(A)p.r(C)p.r(A)p.r(C)p.r(U)p.r(U)p.r(G)p.r(T)p.r(T)}$$$RNA1{StrandType:ss}|RNA2{StrandType:as}$”, the target mRNA knockdown amounted to 92%.
